This test has as its target T1, Polθ (Homo sapiens, UniProt O75417).
T1 construct: a truncated Pole protein (Pole-Hel containing the helicase domain (67-894))
The test can be described thus: Polθ ATPase assay (Biological Assay 1, ADP-Glo luminescence). Format: biochemical. The settings on record: truncated Polθ protein containing the helicase domain (67-894), ssDNA oligo, ATP, in vitro. The procedure: The Pole ATPase assay was used to evaluate inhibitors of Pole ATPase activity, in vitro. Experiments were performed using a truncated Pole protein (Pole-Hel containing the helicase domain (67-894), ATP and a DNA single strand Oligo (5′-CTGTCCTGCATGATG-3′) in the Pole assay buffer (20 mM Tris-HCl (pH 8.8), MgCl2 5 mM, tween20 0.01%, NP40 0.01%, BSA 0.01%, DTT 1 mM). 2 μL of assay buffer containing Pole-Hel protein (0.5 nM) and DNA substrate (500 nM) was transferred into assay ready plates, containing 0.04 μL of compounds diluted in DMSO. After a 30 minutes incubation at 23° C. in the dark, the reaction was triggered by adding 2 μL of ATP (60 μM), in assay buffer. After 60 minutes at 23° C., 4 μl of ADP-Glo™ Reagent (Glo 1) was added followed by 40 minutes of incubation, then 8 μl of ADP-Glo™ kinase Detection Reagent (Glo 2) followed by 60 minutes of incubation at 23° C. Luminescence was then measured using Tecan F200 infinite plate reader. Raw data were analysed using GeneData to generate IC50 values.
The Pole ATPase assay described in Biological Assay 1 above was used to evaluate inhibitors of Pole ATPase activity for the compounds described in the Experimental Part B above, in vitro.

T1 sequence (O75417 67-894): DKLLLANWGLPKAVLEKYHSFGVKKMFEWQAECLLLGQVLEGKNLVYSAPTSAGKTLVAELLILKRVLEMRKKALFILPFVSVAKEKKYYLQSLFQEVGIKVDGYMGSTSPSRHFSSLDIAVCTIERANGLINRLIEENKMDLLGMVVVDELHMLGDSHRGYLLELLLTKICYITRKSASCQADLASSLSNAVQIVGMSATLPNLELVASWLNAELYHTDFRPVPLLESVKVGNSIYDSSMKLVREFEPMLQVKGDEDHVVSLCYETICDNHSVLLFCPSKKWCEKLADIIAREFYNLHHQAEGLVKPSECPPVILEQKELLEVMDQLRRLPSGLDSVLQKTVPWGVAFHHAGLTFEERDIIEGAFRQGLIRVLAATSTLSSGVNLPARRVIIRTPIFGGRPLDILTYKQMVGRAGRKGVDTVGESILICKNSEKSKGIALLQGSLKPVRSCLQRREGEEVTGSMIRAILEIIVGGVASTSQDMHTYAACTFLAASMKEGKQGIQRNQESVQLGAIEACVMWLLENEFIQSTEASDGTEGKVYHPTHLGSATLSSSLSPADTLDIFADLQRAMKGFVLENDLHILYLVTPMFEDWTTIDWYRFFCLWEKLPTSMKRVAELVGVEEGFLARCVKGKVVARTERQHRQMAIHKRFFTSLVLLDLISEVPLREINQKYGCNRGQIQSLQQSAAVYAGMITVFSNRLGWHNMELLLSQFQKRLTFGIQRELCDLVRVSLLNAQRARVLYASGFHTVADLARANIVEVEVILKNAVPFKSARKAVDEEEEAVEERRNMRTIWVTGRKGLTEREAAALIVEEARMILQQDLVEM

Turning to “5′-methoxy-2′,6-dimethyl-N-[5-(morpholin-4-yl)-[1,3]thiazolo[5,4-d]pyrimidin-2-yl]-[4,4′-bipyridine]-3-carboxamide [Example 92]”, the IC50 (commonly the concentration needed to halve the response being measured) was < 100 nM.

Source of the values: US12162895B2, “DNA polymerase theta inhibitor for treatment of cancer” (Breakpoint Therapeutics GmbH, priority 2023, dated 2024).
